{"source": "patent US9901553B2", "about": "“Method of modulating the activity of a nucleic acid molecule” (DUKE UNIVERSITY, priority 2007, dated 2018)", "key": {"human factor IXa": {"molecular_target": "human factor IXa (Homo sapiens, UniProt P00740)", "sequence (P00740 227-461 limits assumed)": "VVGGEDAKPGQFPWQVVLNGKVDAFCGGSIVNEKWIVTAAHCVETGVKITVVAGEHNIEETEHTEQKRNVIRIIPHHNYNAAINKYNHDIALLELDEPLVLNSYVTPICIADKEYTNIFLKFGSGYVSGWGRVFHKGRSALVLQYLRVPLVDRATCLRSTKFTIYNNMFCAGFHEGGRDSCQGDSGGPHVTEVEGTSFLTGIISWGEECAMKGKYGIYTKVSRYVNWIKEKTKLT", "sequence (P00740 47-191 limits assumed)": "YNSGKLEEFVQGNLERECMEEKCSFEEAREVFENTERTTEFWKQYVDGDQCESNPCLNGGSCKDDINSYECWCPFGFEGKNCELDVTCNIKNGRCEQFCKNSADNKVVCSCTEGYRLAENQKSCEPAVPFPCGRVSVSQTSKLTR", "assay": "APTT clotting assay: anticoagulant activity of factor IXa aptamer", "settings": "FIG. 5B"}, "aptamer 9.3t [1]": {"tested_on": "aptamer 9.3t", "assay": "APTT clotting assay: antidote reversal of factor IXa aptamer in human plasma", "settings": "for reversal of factor IXa aptamer (9.3t / Ch-9.3t) anticoagulant activity: antidote 2.5 μg (per 160 μl), human plasma"}, "Aptamer Ch-9.3t": {"tested_on": "Aptamer Ch-9.3t", "assay": "Isothermal titration calorimetry (Example V, Table 3)", "type": "binding", "settings": "ITC, 298K, PBS"}, "human plasma": {"tested_on": "human plasma", "assay": "APTT clotting time with antidote alone (no aptamer)", "type": "biochemical"}, "aptamer 9.3t [2]": {"tested_on": "aptamer 9.3t", "assay": "Isothermal titration calorimetry, two-sites binding model (Table 5)", "settings": "for K1: first stage binding; for affinity for aptamer 9.3t (in words): two-site model"}, "[3]": {"settings": "in vivo; cited from earlier work"}, "aptamers 9.3t and 11F7T": {"tested_on": "aptamers 9.3t and 11F7T", "assay": "APTT clotting assay: reversal of both aptamers simultaneously", "type": "biochemical, human", "settings": "protamine 2.5 μg per 160 μl", "experimental": "All reactions were performed in triplicate."}, "[4]": {"settings": "in vivo; cited from earlier work", "remark": "listed apart in the source"}, "[5]": {"tested_on": "Factor IXa aptamer (Ch-9.3t)", "assay": "Swine systemic anticoagulation, ACT: antidote reversal", "type": "in vivo", "settings": "protamine 10 mg/kg; for reversal of aptamer anticoagulation (ACT): 30 minutes post aptamer"}, "aptamer 11F7T": {"tested_on": "aptamer 11F7T", "assay": "APTT clotting assay: antidote reversal of factor Xa aptamer in human plasma", "settings": "for reversal of factor Xa aptamer (11F7T) anticoagulant activity: antidote 2.5 μg (per 160 μl), human plasma"}, "[6]": {"settings": "in vivo; cited from earlier work", "remark": "listed apart in the source"}, "VWF": {"molecular_target": "T1, VWF (Homo sapiens, UniProt P04275)", "T1 construct": "from tissue; host or cells: normal human whole blood", "T1 sequence (P04275 23-2813)": "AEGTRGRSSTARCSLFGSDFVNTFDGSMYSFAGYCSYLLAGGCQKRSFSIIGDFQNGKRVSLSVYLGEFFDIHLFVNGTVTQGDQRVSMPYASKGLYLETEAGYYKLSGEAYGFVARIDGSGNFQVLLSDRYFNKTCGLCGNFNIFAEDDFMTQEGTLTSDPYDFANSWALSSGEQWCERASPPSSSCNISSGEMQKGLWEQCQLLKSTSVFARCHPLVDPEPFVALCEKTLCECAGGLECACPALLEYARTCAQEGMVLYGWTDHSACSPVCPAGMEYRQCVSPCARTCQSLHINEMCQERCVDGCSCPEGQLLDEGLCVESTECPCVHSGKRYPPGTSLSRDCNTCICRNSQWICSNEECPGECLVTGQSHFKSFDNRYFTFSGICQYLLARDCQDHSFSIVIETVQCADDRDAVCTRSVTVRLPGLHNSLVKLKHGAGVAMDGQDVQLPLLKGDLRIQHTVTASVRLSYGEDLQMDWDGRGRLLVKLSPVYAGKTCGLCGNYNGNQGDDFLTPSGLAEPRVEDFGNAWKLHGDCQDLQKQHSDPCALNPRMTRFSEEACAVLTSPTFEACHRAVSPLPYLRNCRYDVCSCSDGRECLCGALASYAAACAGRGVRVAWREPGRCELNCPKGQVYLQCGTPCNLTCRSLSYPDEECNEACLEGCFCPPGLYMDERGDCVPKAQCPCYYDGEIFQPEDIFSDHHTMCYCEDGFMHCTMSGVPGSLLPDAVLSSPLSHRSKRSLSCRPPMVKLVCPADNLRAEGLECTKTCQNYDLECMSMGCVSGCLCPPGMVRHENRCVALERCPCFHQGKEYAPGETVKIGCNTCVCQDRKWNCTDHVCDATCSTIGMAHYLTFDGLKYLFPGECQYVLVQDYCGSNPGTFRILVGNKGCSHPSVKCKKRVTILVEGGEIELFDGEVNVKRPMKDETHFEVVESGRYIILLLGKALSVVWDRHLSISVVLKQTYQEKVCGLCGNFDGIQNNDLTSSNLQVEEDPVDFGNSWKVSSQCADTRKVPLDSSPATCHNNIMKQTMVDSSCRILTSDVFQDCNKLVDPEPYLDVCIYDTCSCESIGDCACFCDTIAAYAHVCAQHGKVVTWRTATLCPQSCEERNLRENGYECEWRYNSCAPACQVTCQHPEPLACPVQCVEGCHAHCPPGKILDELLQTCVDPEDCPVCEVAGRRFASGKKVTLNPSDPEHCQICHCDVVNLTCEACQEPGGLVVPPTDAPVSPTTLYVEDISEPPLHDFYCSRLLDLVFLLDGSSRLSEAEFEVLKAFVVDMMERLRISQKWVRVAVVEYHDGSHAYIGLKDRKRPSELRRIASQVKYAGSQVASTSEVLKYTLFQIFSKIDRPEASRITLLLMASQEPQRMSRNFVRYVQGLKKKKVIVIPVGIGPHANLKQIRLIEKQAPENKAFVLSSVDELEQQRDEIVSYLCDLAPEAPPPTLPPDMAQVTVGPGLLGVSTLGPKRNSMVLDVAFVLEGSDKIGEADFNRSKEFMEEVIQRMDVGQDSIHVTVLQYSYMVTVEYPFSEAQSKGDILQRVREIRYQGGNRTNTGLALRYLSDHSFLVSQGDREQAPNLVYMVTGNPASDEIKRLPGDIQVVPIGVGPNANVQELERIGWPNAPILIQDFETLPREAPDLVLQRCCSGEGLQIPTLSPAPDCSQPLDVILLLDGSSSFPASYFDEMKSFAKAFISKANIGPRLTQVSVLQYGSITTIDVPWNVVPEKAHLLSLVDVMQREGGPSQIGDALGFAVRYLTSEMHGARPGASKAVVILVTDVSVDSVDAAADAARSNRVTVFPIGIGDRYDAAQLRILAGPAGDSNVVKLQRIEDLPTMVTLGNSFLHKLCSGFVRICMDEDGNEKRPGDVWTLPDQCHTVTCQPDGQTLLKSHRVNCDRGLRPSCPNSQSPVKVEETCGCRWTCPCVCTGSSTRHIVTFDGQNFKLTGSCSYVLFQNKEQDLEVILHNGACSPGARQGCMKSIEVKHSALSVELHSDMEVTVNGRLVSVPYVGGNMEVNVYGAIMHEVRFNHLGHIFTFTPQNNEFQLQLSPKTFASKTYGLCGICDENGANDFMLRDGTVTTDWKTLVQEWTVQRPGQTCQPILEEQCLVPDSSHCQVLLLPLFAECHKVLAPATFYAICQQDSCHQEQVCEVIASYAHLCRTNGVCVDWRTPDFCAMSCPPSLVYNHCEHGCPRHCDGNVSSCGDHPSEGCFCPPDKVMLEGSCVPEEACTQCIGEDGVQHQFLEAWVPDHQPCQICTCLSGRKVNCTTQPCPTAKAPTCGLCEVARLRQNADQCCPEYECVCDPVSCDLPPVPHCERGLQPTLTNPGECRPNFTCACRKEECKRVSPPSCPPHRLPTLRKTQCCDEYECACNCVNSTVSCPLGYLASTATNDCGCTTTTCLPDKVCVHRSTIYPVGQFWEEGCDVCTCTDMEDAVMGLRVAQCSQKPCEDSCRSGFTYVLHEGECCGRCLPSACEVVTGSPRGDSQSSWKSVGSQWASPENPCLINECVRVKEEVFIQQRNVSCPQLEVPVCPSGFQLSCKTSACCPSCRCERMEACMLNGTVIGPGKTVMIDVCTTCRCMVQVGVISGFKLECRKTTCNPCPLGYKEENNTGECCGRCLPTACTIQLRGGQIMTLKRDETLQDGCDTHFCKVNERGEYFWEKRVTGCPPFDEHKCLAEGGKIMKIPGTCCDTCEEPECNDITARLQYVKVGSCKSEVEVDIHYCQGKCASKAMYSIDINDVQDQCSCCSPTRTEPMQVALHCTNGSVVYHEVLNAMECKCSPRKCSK", "assay": "PFA-100 platelet function assay: antiplatelet activity of VWF aptamers", "type": "cell-based", "settings": "whole blood", "experimental": "The Platelet Function Analyzer, PFA-100 (Dade Behring, Deerfield, Ill.), measures platelet function in terms of clot formation time. In this assay, collagen/ADP cartridges were used to activate the platelets. 800 μl of whole blood was mixed with aptamer in platelet binding buffer (40 μl) (150 mM NaCl; 20 mM Hepes pH:7.4; 5 mM KCl; 1 mM MgCl2 and 1 mM CaCl2) and incubated for 5 min at room temperature. Antidote molecule or platelet buffer (40 μl) was than added and incubated for 5 min at room temperature. This mixture was then added to a collagen/ADP cartridge and tested for its closing time (Harrison, Blood Rev. 19:111 (2005)). The maximum closing time of the PFA-100 is 300 seconds. Data is shown as the change in closing time. All reactions were performed in triplicate."}, "[7]": {"settings": "9.3t-Bi 150 nM + antidote 2.5 ug/well"}, "[8]": {"settings": "protamine 2.5 μg, aptamer 150 nM"}}, "note": "Entries after “also recorded” stand apart in the source; their conditions may differ. Positions of bridges follow the written chain, without caps; N, C: chain ends. Non-standard residues stand in square brackets, D forms with d. Residues, ends and D or L forms follow the SMILES beside them. [invdT] = inverted (3'-3') thymidine; hArg = N=C(N)NCCCC[C@H](N)C(=O)O; Mpa = O=C(O)CCS"}
{"molecule": "9.3t: factor IXa aptamer, 37 nt 2′fluoropyrimidine modified ssRNA, no carrier (SEQ ID NO: 1) (AUGGGGACUAUACCGCGUAAUGCUGCCUCCCCAUU; 2'-fluoro at CU, RNA at AG, 3' [invdT], backbone not given here)", "values": [{"measurement": "anticoagulant activity (in words)", "setting": "human factor IXa", "result": "potent anticoagulant"}]}
{"molecule": "NCCCNCCCCNCCCN", "note": "[Spermine]", "values": [{"measurement": "APTT clotting time", "setting": "aptamer 9.3t [1]; 9.3t-Bi 150 nM + antidote 1.3 ug/well", "result": 72.7, "unit": "s"}, {"measurement": "Comments: reversal over antidote range", "setting": "aptamer 9.3t [1]; 9.3t-Bi 150 nM, antidote 1.3 ug/well-10 ug/well", "result": "Did not work b/w 1.3 ug/well-10 ug/well"}, {"measurement": "Binding constant", "setting": "Aptamer Ch-9.3t", "result": 8800, "unit": "M⁻¹"}, {"measurement": "affinity with aptamer 9.3t (in words)", "setting": "Aptamer Ch-9.3t", "result": "No significant binding"}, {"measurement": "APTT clotting time", "setting": "human plasma; antidote 1.3 ug/well", "result": 63.8, "unit": "s"}, {"measurement": "K1", "setting": "aptamer 9.3t [2]", "result": "1.63e+06", "unit": "M⁻¹"}, {"measurement": "K2", "setting": "aptamer 9.3t [2]; second stage binding", "result": 126000, "unit": "M⁻¹"}, {"measurement": "affinity for aptamer 9.3t (in words)", "setting": "aptamer 9.3t [2]", "result": "orders of magnitude lower"}]}
{"molecule": "N=C(N)NCCCC[C@@H]1NC(=O)CCSSC[C@@H](C(N)=O)NC(=O)[C@@H]2CCCN2C(=O)[C@H](Cc2c[nH]c3ccccc23)NC(=O)[C@H](CC(=O)O)NC(=O)CNC1=O", "note": "[eptifibatide] ([Mpa][hArg]GDWPC-NH2; disulfide 1-7)", "values": [{"measurement": "time for clearance of the compound", "setting": "[3]", "result": "2 to 4", "unit": "h"}]}
{"molecule": "NCCCCNCCCN", "note": "[spermidine, Spermidine]", "values": [{"measurement": "affinity with aptamer 9.3t (in words)", "setting": "Aptamer Ch-9.3t", "result": "No significant binding"}]}
{"molecule": "Protamine", "values": [{"measurement": "protamine concentration for total reversal relative to that routinely used to reverse heparin's anticoagulant activity", "setting": "aptamer 9.3t [1]; 2.5 μg protamine, both aptamers 9.3t and 11F7T, lower", "result": 2, "unit": "fold"}, {"measurement": "APTT clotting time", "setting": "aptamer 9.3t [1]; [7]", "result": 30.3, "unit": "s"}, {"measurement": "Reversal", "setting": "aptamer 9.3t [1]; [7]", "result": "Yes"}, {"measurement": "reversal of factor IXa aptamer (9.3t / Ch-9.3t) anticoagulant activity", "setting": "aptamer 9.3t [1]; aptamer 150 nM", "result": "reverses"}, {"measurement": "reversal of factor IXa aptamer (9.3t / Ch-9.3t) anticoagulant activity", "setting": "aptamer 9.3t [1]; aptamer 150 nM, listed as protamine", "result": "returned the clotting time to normal; also recorded: totally reverse"}, {"measurement": "duration of reversal in vitro (APTT)", "setting": "aptamer 9.3t [1]; protamine", "result": "at least 60 minutes"}, {"measurement": "duration of reversal", "setting": "aptamer 9.3t [1]; [8]", "result": "maintained for at least an hour"}, {"measurement": "time after protamine addition to return of clotting time to normal", "setting": "aptamer 9.3t [1]; [8]", "result": "≤ 5", "unit": "min"}, {"measurement": "duration of simultaneous reversal", "setting": "aptamers 9.3t and 11F7T", "result": "maintained for at least an hour"}, {"measurement": "reversal of both aptamers' activity simultaneously", "setting": "aptamers 9.3t and 11F7T", "result": "reverses"}, {"measurement": "reversal of both aptamers' activity simultaneously", "setting": "aptamers 9.3t and 11F7T; listed as protamine", "result": "reverse the anticoagulant activity of the two aptamers simultaneously"}, {"measurement": "side effects of administration", "setting": "[4]", "result": "associated with several side effects"}, {"measurement": "APTT clotting time", "setting": "human plasma; antidote 2.5 ug/well", "result": 24, "unit": "s"}, {"measurement": "time to return of ACT to baseline / reversal", "setting": "[5]", "result": "within five minutes"}, {"measurement": "reversal of aptamer anticoagulation (ACT)", "setting": "[5]", "result": "reverses"}, {"measurement": "reversal of aptamer anticoagulation (ACT)", "setting": "[5]; listed as protamine", "result": "total reversal; also recorded: complete reversal"}, {"measurement": "duration of reversal", "setting": "[5]; Example IV", "result": "at least one hour"}, {"measurement": "duration of reversal (remainder of the experiment)", "setting": "[5]; Example VI", "result": 60, "unit": "min"}, {"measurement": "reversal of factor Xa aptamer (11F7T) anticoagulant activity", "setting": "aptamer 11F7T; aptamer 250 nM", "result": "reverses"}, {"measurement": "reversal of factor Xa aptamer (11F7T) anticoagulant activity", "setting": "aptamer 11F7T; aptamer 250 nM, listed as protamine", "result": "totally reverse"}, {"measurement": "duration of reversal in vitro (APTT)", "setting": "aptamer 11F7T; protamine", "result": "at least 60 minutes"}, {"measurement": "time after protamine administration to total reversal", "setting": "aptamer 11F7T; protamine 2.5 μg, aptamer 250 nM", "result": "≤ 5", "unit": "min"}, {"measurement": "K1", "setting": "aptamer 9.3t [2]", "result": "3.09e+07", "unit": "M⁻¹"}, {"measurement": "affinity for aptamer 9.3t (in words)", "setting": "aptamer 9.3t [2]", "result": "significant and similar affinities"}]}
{"molecule": "β-cyclodextrin-containing polycation (imidazole-containing variant) [CDP-Im]", "values": [{"measurement": "safety profile", "setting": "[6]", "result": "favorable safety profile"}]}
{"molecule": "VWF aptamer 9.14: Von Willebrand factor aptamer (SEQ ID NO: 3) (nucleic acid, listed as RNA, chemistry not given here) GGGAGGACGAUGCGGUGGACGAACUGCCCUCAGCUACUUUCAUGUUGCUGACGCACAGACGACUCGCUGAGGAUCCGAGA", "values": [{"measurement": "inhibition of platelet function", "setting": "VWF", "result": "can inhibit platelet function"}]}
{"molecule": "VWF aptamer 9.3: Von Willebrand factor aptamer (SEQ ID NO: 5) (nucleic acid, listed as RNA, chemistry not given here) GGGAGGACGAUGCGGAUCGCGCUCUCCUGCUUAAGCAGCUAUCAAAUAGCCCACUCAGACGACUCGCUGAGGAUCCGAGA", "values": [{"measurement": "inhibition of platelet function", "setting": "VWF", "result": "can inhibit platelet function"}]}
